From patent publication US11452731B2, “Method of treating and preventing loss of cognition” (ENDORECHERCHE, INC., priority 2009, dated 2022)

Legend:
[1] = 3-month treatment of ovariectomized rats: lumbar spine BMD, total body fat, serum cholesterol, ALP (Example 4, experiment 1); type: in vivo, rat; settings: OVX rats, 3 months; for LUMBAR SPINE BMD / LUMBAR SPINE Prevention of Bone Loss: E2 1 mg/kg, EM-652.HCl 2.5 mg/kg, DHEA 80 mg/kg
Protocol: (§1) Ten to twelve week-old female Sprague-Dawley rats (Crl:CD(SD)Br) (Charles River Laboratory, St-Constant, Canada) weighing approximately 220-270 g at start of treatment were used. The animals were acclimatized to the environmental conditions (temperature: 22±3° C.; humidity: 50±20%; 12-h light-12-h dark cycles, lights on at 07:15 h) for at least 1 week before starting the experiments. The animals were housed individually and were allowed free access to tap water and a pelleted certified rodent feed (Lab Diet 5002, Ralston Purina, St-Louis, Mo.). Experiments were conducted in an animal facility approved by the Canadian Council on Animal Care (CCAC) and the Association for Assessment and Accreditation of Laboratory Animal Care (AAALAC) in accordance with the CCAC Guide for Care and Use of Experimental Animals.
On day 1 of the study, the animals of the appropriate groups were bilaterally ovariectomized (OVX) under isoflurane anesthesia. The DHEA was applied topically on the dorsal skin as a solution in 50% ethanol-50% propylene glycol while the other tested compounds were administered as suspension in 0.4% methylcellulose by oral gavage. Treatments were initiated on day 2 of the study and were performed once daily during 3 months.
After 3 months (experiment 1) or 26 weeks (experiment 2) of treatment, individual rats under Isoflurane anesthesia had their whole body skeleton and lumbar spine scanned using dual energy x-ray absorptiometry (DEXA; QDR 4500A, Hologic, Waltham, Mass.) and a Regional High Resolution Scan software. The bone mineral density (BMD) of the lumbar spine (vertebrae L2 to L4) and the total body composition (fat percentage) were determined.
After 3 months (experiment 1) or 26 weeks (experiment 2) of treatment, blood samples were collected at the jugular vein from overnight fasted animals (under Isoflurane anesthesia). Samples were processed for serum preparation and frozen at −80° C. until assay. Serum cholesterol levels and alkaline phospatase activity (ALP) were determined using the Boehringer Mannheim Diagnostic Hitachi 911 Analyzer (Boehringer Mannheim Diagnostic Laboratory Systems).

[2] = 5-week treatment of ovariectomized rats with SERMs alone or with DHEA: BMD of lumbar spine, femur, tibia (Example 5); type: in vivo, rat; settings: OVX rats, 5 weeks; for LUMBAR SPINE (L2-L4) BMD / LUMBAR SPINE (L2-L4) Prevention of Bone Loss: SERMs 2.5 mg/kg, DHEA 80 mg/kg
Protocol: as §1
On day 1 of the study, the animals of the appropriate groups were bilaterally ovariectomized (Ovx) under isoflurane anesthesia. The DHEA was applied topically on the dorsal skin as a solution in 50% ethanol-50% propylene glycol while the tested SERMs were administered as suspension in 0.4% methylcellulose by oral gavage. Treatments were initiated on day 2 of the study and were performed once daily during 5 weeks.
After 5 weeks of treatment, individual rats under Isoflurane anesthesia had their lumbar spine, femur and tibia scanned using dual energy x-ray absorptiometry (DEXA; QDR 4500A, Hologic, Waltham, Mass.) and a Regional High Resolution Scan software. The bone mineral density (BMD) of the lumbar spine (vertebrae L2 to L4), distal femoral metaphysis (DFM) and proximal tibial metaphysis (PTM) were determined.

[3] = 6 months; cited from earlier work
[4] = Uterine and vaginal weight in ovariectomized BALB/c mice treated orally for 9 days with or without estrone (Example 3); type: in vivo; settings: for inhibition of estrone-stimulated uterine weight / inhibition of vaginal weight (estrone-stimulated): OVX mice + estrone, oral 9 days
Procedure, shortened: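 OVX BALB/c mice (18-20 g) were dosed orally by gavage once daily for 9 days from day 2 post-OVX, with or without estrone s.c. twice daily from day 5 for 6 days. The vehicle was 4% ethanol in 0.4% methylcellulose. Uterine and vaginal weights were taken on the 11th morning after OVX.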

[5] = 26-week treatment of ovariectomized rats: lumbar spine BMD, total body fat, serum cholesterol, ALP (Example 4, experiment 2); type: in vivo, rat; settings: OVX rats, 26 weeks
Protocol: Ten to twelve week-old female Sprague-Dawley rats (Crl:CD(SD)Br) (Charles River Laboratory, St-Constant, Canada) weighing approximately 220-270 g at start of treatment were used. […] The animals were housed individually and were allowed free access to tap water and a pelleted certified rodent feed (Lab Diet 5002, Ralston Purina, St-Louis, Mo.). Experiments were conducted in an animal facility approved by the Canadian Council on Animal Care (CCAC) and the Association for Assessment and Accreditation of Laboratory Animal Care (AAALAC) in accordance with the CCAC Guide for Care and Use of Experimental Animals. […] Treatments were initiated on day 2 of the study and were performed once daily during 26 weeks. In both experiments, animals not receiving a test article were treated with the appropriate vehicle alone during the same period. […] QDR 4500A, Hologic, Waltham, Mass.) and a Regional High Resolution Scan software. […] Samples were processed for serum preparation and frozen at -80° C. until assay. Serum cholesterol levels and alkaline phospatase activity (ALP) were determined using the Boehringer Mannheim Diagnostic Hitachi 911 Analyzer (Boehringer Mannheim Diagnostic Laboratory Systems).

[6] = OVX mice, absence of estrone, 10 μg daily (no-effect statements: 1 μg and 10 μg)
[7] = Premarin 0.25 mg/kg, SERMs 2.5 mg/kg

C[C@]12CC[C@H](O)CC1=CC[C@@H]1[C@@H]2CC[C@]2(C)C(=O)CC[C@@H]12 [DHEA, dehydroepiandrosterone]
ALP (serum alkaline phosphatase activity) [1]: 224±18 IU/L | CHOLESTEROL (serum) [1]: 1.59 ± 0.10 mmol/L | TOTAL FAT [1]: 17.3 ± 1.5 % | LUMBAR SPINE BMD [1]: 0.2321 ± 0.0034 g/cm^2 | LUMBAR SPINE Prevention of Bone Loss [1]: 43% | DISTAL FEMORAL METAPHYSIS (DFM) BMD [2]: 0.2934 ± 0.0046 g/cm^2 | DISTAL FEMORAL METAPHYSIS (DFM) Prevention of Bone Loss [2]: 71% | PROXIMAL TIBIAL METAPHYSIS (PFM) BMD [2]: 0.2672 ± 0.0041 g/cm^2 | PROXIMAL TIBIAL METAPHYSIS (PFM) Prevention of Bone Loss [2]: 42% | LUMBAR SPINE (L2-L4) BMD [2]: 0.2144 ± 0.0028 g/cm^2 | LUMBAR SPINE (L2-L4) Prevention of Bone Loss [2]: 44% | decrease of total body fat mass [3]: 1.4 kg | increase of fat-free mass [3]: 0.9 kg

CC1=C(c2ccc(O)cc2)[C@H](c2ccc(OCCN3CCCCC3)cc2)Oc2cc(O)ccc21.Cl [EM-652.HCl, (S)-(+)-7-hydroxy-3-(4′-hydroxyphenyl)-4-methyl-2-(4″-(2′″-piperidinoethoxy)phenyl)-2H-1-benzopyran hydrochloride]
inhibition of estrone-stimulated uterine weight ([4]; 1 μg daily): 24% | inhibition of vaginal weight (estrone-stimulated) ([4]; 1 μg daily): 10% | inhibition of estrone-stimulated uterine weight ([4]; 3 μg daily): 48% | inhibition of vaginal weight (estrone-stimulated) ([4]; 3 μg daily): 25% | inhibition of estrone-stimulated uterine weight ([4]; 10 μg daily): 72% | inhibition of vaginal weight (estrone-stimulated) ([4]; 10 μg daily): 53% | stimulation of uterine weight (estrogenic effect) [4, 6]: no significant stimulatory effect | stimulation of vaginal weight (estrogenic effect) [4, 6]: no significant stimulatory effect | ALP (serum alkaline phosphatase activity) [1]: 91 ± 6 IU/L | CHOLESTEROL (serum) [1]: 0.87 ± 0.04 mmol/L | LUMBAR SPINE BMD [1]: 0.2374 ± 0.0027 g/cm^2 | LUMBAR SPINE Prevention of Bone Loss [1]: 65% | TOTAL FAT ([1]; hydrochloride): completely prevented | TOTAL FAT ([1]; listed as EM-652•HCl, hydrochloride): 23.2 ± 1.4 % | ALP [5]: 78 ± 4 IU | CHOLESTEROL (serum) [5]: 0.98 ± 0.06 mmol/L | TOTAL FAT [5]: 27.7 ± 1.4 % | reversal of the fat increase induced by estrogen deficiency [5]: 78% | LUMBAR SPINE BMD [5, 7]: 0.2311 ± 0.0040 g/cm^2 | LUMBAR SPINE Prevention of Bone Loss [5, 7]: 62% | DISTAL FEMORAL METAPHYSIS (DFM) BMD [2]: 0.3008 ± 0.0055 g/cm^2 | DISTAL FEMORAL METAPHYSIS (DFM) Prevention of Bone Loss [2]: 95% | PROXIMAL TIBIAL METAPHYSIS (PFM) BMD [2]: 0.2806 ± 0.0035 g/cm^2 | PROXIMAL TIBIAL METAPHYSIS (PFM) Prevention of Bone Loss [2]: 92% | LUMBAR SPINE (L2-L4) BMD [2]: 0.2232 ± 0.0031 g/cm^2 | LUMBAR SPINE (L2-L4) Prevention of Bone Loss [2]: 86%
